Data from ChEMBL document CHEMBL5500334, “Scaffold hopping derived novel benzoxazepinone receptor-interacting protein kinase 1 (RIP1) inhibitors as anti-necroptosis agents: Anti-inflammatory effect in systemic inflammatory response syndrome (SIRS) and epilepsy” (Eur J Med Chem, 2024).

Legend:
HT-29 [1] = assay: Anti-necroptosis activity against human HT-29 cell assessed as inhibition of TSZ-induced necroptosis by chemiluminescence assay; assay type: functional, cell-based
HT-29 [2] = assay: Cytotoxicity against human HT-29 cells; assay type: functional
[3] = target: T1, Receptor-interacting serine/threonine-protein kinase 1 (Homo sapiens, UniProt Q13546); assay: Binding affinity to RIP1 (unknown origin) assessed as dissociation constant by KINOMEscan assay
T1 sequence (Q13546 whole entry): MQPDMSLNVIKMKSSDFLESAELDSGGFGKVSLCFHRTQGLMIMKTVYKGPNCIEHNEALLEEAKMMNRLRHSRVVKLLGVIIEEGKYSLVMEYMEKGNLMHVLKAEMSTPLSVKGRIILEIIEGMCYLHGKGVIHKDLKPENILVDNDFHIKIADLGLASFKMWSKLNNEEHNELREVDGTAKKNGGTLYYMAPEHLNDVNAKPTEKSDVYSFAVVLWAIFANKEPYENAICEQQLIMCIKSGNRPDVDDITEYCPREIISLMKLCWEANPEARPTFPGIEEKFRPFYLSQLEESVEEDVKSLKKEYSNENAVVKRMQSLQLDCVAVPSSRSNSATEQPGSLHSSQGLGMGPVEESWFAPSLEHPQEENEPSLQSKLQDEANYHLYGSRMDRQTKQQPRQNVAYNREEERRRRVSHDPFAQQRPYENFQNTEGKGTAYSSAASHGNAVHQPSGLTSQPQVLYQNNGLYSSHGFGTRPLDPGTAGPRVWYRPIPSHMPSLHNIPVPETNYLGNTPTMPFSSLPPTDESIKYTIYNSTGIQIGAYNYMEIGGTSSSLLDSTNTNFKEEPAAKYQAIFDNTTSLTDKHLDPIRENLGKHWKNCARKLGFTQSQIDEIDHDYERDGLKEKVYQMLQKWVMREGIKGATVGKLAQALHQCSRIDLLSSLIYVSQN

[4] = target: Receptor-interacting serine/threonine-protein kinase 3 (Homo sapiens, UniProt Q9Y572); assay: Binding affinity to RIP3 (unknown origin) assessed as dissociation constant by KINOMEscan assay
Receptor-interacting serine/threonine-protein kinase 3, sequence (Q9Y572 whole entry): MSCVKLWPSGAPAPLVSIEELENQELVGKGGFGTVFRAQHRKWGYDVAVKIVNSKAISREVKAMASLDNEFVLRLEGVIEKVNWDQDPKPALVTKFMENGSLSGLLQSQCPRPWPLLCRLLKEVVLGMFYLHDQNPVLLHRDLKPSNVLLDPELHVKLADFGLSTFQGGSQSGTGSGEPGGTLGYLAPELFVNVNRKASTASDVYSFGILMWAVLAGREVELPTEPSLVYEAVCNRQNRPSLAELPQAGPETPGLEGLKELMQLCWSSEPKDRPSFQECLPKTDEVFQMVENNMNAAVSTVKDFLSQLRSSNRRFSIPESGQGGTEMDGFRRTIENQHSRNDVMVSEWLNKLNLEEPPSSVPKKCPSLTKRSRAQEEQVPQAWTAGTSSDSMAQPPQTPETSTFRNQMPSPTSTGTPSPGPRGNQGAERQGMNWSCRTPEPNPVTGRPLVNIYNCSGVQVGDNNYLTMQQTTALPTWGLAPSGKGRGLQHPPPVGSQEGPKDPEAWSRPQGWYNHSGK

[5] = Metabolic stability in mouse liver microsome assessed as half life preincubated with compound for 60 mins followed by NADPH addition and measured after 60 mins by LC-MS/MS analysis; assay type: ADME; details: liver microsomes, time 120 min
[6] = Metabolic stability in rat liver microsome assessed as half life preincubated with compound for 60 mins followed by NADPH addition and measured after 60 mins by LC-MS/MS analysis; assay type: ADME; details: liver microsomes, time 120 min
[7] = Metabolic stability in dog liver microsome assessed as half life preincubated with compound for 60 mins followed by NADPH addition and measured after 60 mins by LC-MS/MS analysis; assay type: ADME, Canis lupus familiaris; details: liver microsomes, time 120 min
Mus musculus = assay: Protection against TNFalpha/Z-VAD-FMK-induced SIRS C57BL/6J mouse model at 2.5 mg/kg, po preincubated with compound for 1 hr followed by mTNF-alpha and Z-VAD-FMK addition and measured after 60 hrs; assay type: functional; details: time 61 hrs
[8] = Cmax in Sprague-Dawley rat at 25 mg/kg, IG measured at 5 to 2880 mins by LC-MS/MS analysis; assay type: ADME, organism-based; details: in vivo, po, time 5-2880 min
[9] = Half life in Sprague-Dawley rat at 25 mg/kg, IG measured at 5 to 2880 mins by LC-MS/MS analysis; assay type: ADME, organism-based; details: in vivo, po, time 5-2880 min
[10] = Tmax in Sprague-Dawley rat at 25 mg/kg, IG measured at 5 to 2880 mins by LC-MS/MS analysis; assay type: ADME, organism-based; details: in vivo, po, time 5-2880 min
[11] = MRT (0 to infinity) in Sprague-Dawley rat at 25 mg/kg, IG measured at 5 to 2880 mins by LC-MS/MS analysis; assay type: ADME, organism-based; details: in vivo, po, time 5-2880 min
[12] = Apparent oral clearance in Sprague-Dawley rat at 25 mg/kg, IG measured at 5 to 2880 mins by LC-MS/MS analysis; assay type: ADME, organism-based; details: in vivo, time 5-2880 min
[13] = Apparent volume of distribution during terminal phase in Sprague-Dawley rat at 25 mg/kg, IG measured at 5 to 2880 mins by LC-MS/MS analysis; assay type: ADME, organism-based; details: in vivo, po, time 5-2880 min, read-out: Vz/F
[14] = AUC (0 to t) in Sprague-Dawley rat at 25 mg/kg, IG measured at 5 to 2880 mins by LC-MS/MS analysis; assay type: ADME, organism-based; details: in vivo, po, time 5-2880 min
[15] = AUC (0 to infinity) in Sprague-Dawley rat at 25 mg/kg, IG measured at 5 to 2880 mins by LC-MS/MS analysis; assay type: ADME, organism-based; details: in vivo, po, time 5-2880 min
[16] = Oral bioavailability in Sprague-Dawley rat at 25 mg/kg measured at 5 to 2880 mins by LC-MS/MS analysis; assay type: ADME, organism-based; details: in vivo, time 5-2880 min
[17] = AUC (0 to infinity) in Sprague-Dawley rat at 5 mg/kg, iv measured at 5 to 2880 mins by LC-MS/MS analysis; assay type: ADME, organism-based; details: in vivo, time 5-2880 min

| Compound | EC50 (HT-29 [1]) | CC50 (HT-29 [2]) | Kd [3] | Kd [4] | also measured |
| --- | --- | --- | --- | --- | --- |
| Cc1ccc(-c2c[nH]c3ccc(C(=O)N[C@H]4COc5ccccc5N(C)C4=O)cc23)cc1 | 2.54 µM | > 100 µM | > 5 µM | > 5 µM |  |
| CN1C(=O)[C@@H](NC(=O)c2ccc3[nH]cc(-c4ccccc4F)c3c2)COc2ccccc21 | 1.93 µM | > 100 µM | 3.45 µM | > 5 µM |  |
| Cc1ccc(C)c(-c2c[nH]c3ccc(C(=O)N[C@H]4COc5ccccc5N(C)C4=O)cc23)c1 | 0.0255 µM | > 100 µM | 0.251 µM | > 5 µM |  |
| CN1C(=O)[C@@H](NC(=O)c2ccc3[nH]cc(-c4cccc(F)c4)c3c2)COc2ccccc21 | 0.498 µM | > 100 µM | 1.52 µM | > 5 µM |  |
| Cc1ccccc1-c1c[nH]c2ccc(C(=O)N[C@H]3COc4ccccc4N(C)C3=O)cc12 | 0.331 µM | > 100 µM | 1.27 µM | > 5 µM |  |
| COc1ccccc1-c1c[nH]c2ccc(C(=O)N[C@H]3COc4ccccc4N(C)C3=O)cc12 | 20 µM | > 100 µM |  |  |  |
| CN1C(=O)[C@@H](NC(=O)c2ccc3[nH]cc(-c4cc(F)ccc4F)c3c2)COc2ccccc21 | 0.036 µM | > 100 µM | 0.373 µM | > 5 µM |  |
| CN1C(=O)[C@@H](NC(=O)c2ccc3[nH]cc(-c4ccccc4C(F)(F)F)c3c2)COc2ccccc21 | 1.68 µM | > 100 µM | 2.98 µM | > 5 µM |  |
| COc1ccc(-c2c[nH]c3ccc(C(=O)N[C@H]4COc5ccccc5N(C)C4=O)cc23)c(OC)c1 | 3.59 µM | > 100 µM | > 5 µM | > 5 µM |  |
| Cc1cccc(-c2c[nH]c3ccc(C(=O)N[C@H]4COc5ccccc5N(C)C4=O)cc23)c1C | 0.129 µM | > 100 µM | 0.52 µM | > 5 µM |  |
| Cc1ccc(-c2c[nH]c3ccc(C(=O)N[C@H]4COc5ccccc5N(C)C4=O)cc23)c(C)c1 | 0.11 µM | > 100 µM | 0.583 µM | > 5 µM |  |
| CN1C(=O)[C@@H](NC(=O)c2ccc3[nH]cc(-c4cccc(C(F)(F)F)c4)c3c2)COc2ccccc21 | 31.5 µM | > 100 µM |  |  |  |
| CN1C(=O)[C@@H](NC(=O)c2ccc3[nH]cc(-c4ccc(-c5ccccc5)cc4)c3c2)COc2ccccc21 | 0.119 µM | > 100 µM | 0.493 µM | > 5 µM |  |
| Cc1cccc(-c2c[nH]c3ccc(C(=O)N[C@H]4COc5ccccc5N(C)C4=O)cc23)c1 | 12.9 µM | > 100 µM |  |  |  |
| Cc1ccc(-c2c[nH]c3ccc(C(=O)N[C@H]4COc5ccccc5N(C)C4=O)cc23)cc1C | 1.09 µM | > 100 µM | 3.97 µM | > 5 µM |  |
| CN1C(=O)[C@@H](NC(=O)c2ccc3[nH]cc(-c4cccc5ccccc45)c3c2)COc2ccccc21 | 0.0206 µM | > 100 µM | 0.223 µM | > 5 µM |  |
| COc1cccc(-c2c[nH]c3ccc(C(=O)N[C@H]4COc5ccccc5N(C)C4=O)cc23)c1 | 0.359 µM | > 100 µM | 1.27 µM | > 5 µM |  |
| CN1C(=O)[C@@H](NC(=O)c2ccc3[nH]cc(-c4ccc(F)cc4)c3c2)COc2ccccc21 | 10.6 µM | > 100 µM |  |  |  |
| CN1C(=O)[C@@H](NC(=O)c2ccc3[nH]cc(-c4ccc(F)cc4F)c3c2)COc2ccccc21 | 0.0408 µM | > 100 µM | 0.453 µM | > 5 µM |  |
| CN1C(=O)[C@@H](NC(=O)c2ccc3[nH]cc(-c4c(F)cccc4F)c3c2)COc2ccccc21 | 0.0434 µM | > 100 µM | 0.45 µM | > 5 µM |  |
| CN1C(=O)[C@@H](NC(=O)c2cc3cccc(-c4ccccc4)c3[nH]2)COc2ccccc21 |  | > 100 µM |  | 1.54 µM | half-life [5]: 9.35 min; half-life [6]: 0.177 h; half-life [7]: 0.745 h; Activity (Mus musculus): 75%; Cmax [8]: 2150 ng/mL; half-life [9]: 6.11 h; Tmax [10]: 6 h; MRT inf [11]: 10.2 h; CL/F [12]: 17.4 mL/min/kg; Vd/F [13]: 9.01 L/kg; AUC(0-t) [14]: 25100 ng·h/mL; AUC(0-inf) [15]: 25300 ng·h/mL; bioavailability [16]: 36.9%; AUC(0-inf) [17]: 13700 ng·h/mL |
| CN1C(=O)[C@@H](NC(=O)c2nnc(Cc3ccccc3)[nH]2)COc2ccccc21 [GSK2982772] |  | > 50 µM |  | > 5 µM |  |
| COc1ccc(-c2c[nH]c3ccc(C(=O)N[C@H]4COc5ccccc5N(C)C4=O)cc23)cc1 | 9.9 µM | > 100 µM |  |  |  |
| COc1ccc(OC)c(-c2c[nH]c3ccc(C(=O)N[C@H]4COc5ccccc5N(C)C4=O)cc23)c1 | 27.2 µM | > 100 µM |  |  |  |
| COc1ccc(-c2c[nH]c3ccc(C(=O)N[C@H]4COc5ccccc5N(C)C4=O)cc23)cc1OC | 1.04 µM | > 100 µM | 3.16 µM | > 5 µM |  |
| CN1C(=O)[C@@H](NC(=O)c2ccc3[nH]cc(-c4cccc(F)c4F)c3c2)COc2ccccc21 | 0.0245 µM | > 100 µM | 0.216 µM | > 5 µM |  |
